Test results taken from US11434221B2, “Pyrazine-4-carbamate or -urea derivatives as herbicides” (Syngenta Participations AG, priority 2017, dated 2022).

Experiments:
Type in all cases: in vivo
Design in all cases: key: 5=total damage to plant; 0=no damage to plant
[1] = system: Alopecurus myosuroides (ALOMY); experiment: Pre-emergence herbicidal activity, glasshouse pot test; conditions: Rate 1000 g/ha; sprayed one day after sowing; evaluated after 13 days
Description: (§1) Seeds of a variety of test species were sown in standard soil in pots: Triticum aestivium (TRZAW), Avena fatua (AVEFA), Alopecurus myosuroides (ALOMY), Echinochloa crus-galli (ECHCG), Lolium perenne (LOLPE), and Setaria faberi (SETFA). After cultivation for one day (pre-emergence) under controlled conditions in a glasshouse (at 24/16° C., day/night; 14 hours light; 65% humidity), the plants were sprayed with an aqueous spray solution derived from the formulation of the technical active ingredient in acetone/water (50:50) solution containing 0.5% Tween 20 (polyoxyethelyene sorbitan monolaurate, CAS RN 9005-64-5). The test plants were then grown in a glasshouse under controlled conditions (at 24/16° C., day/night; 14 hours light; 65% humidity) and watered twice daily. After 13 days, the test was evaluated (5=total damage to plant; 0=no damage to plant).

[2] = system: Avena fatua (AVEFA); experiment: as above; conditions: Rate 1000 g/ha; sprayed one day after sowing; evaluated after 13 days
Description: as §1

[3] = system: Echinochloa crus-galli (ECHCG); experiment: as above; conditions: Rate 1000 g/ha; sprayed one day after sowing; evaluated after 13 days
Description: as §1

[4] = system: Lolium perenne (LOLPE); experiment: as above; conditions: Rate 1000 g/ha; sprayed one day after sowing; evaluated after 13 days
Description: as §1

[5] = system: Setaria faberi (SETFA); experiment: as above; conditions: Rate 1000 g/ha; sprayed one day after sowing; evaluated after 13 days
Description: as §1

[6] = system: Triticum aestivium (TRZAW); experiment: as above; conditions: Rate 1000 g/ha; sprayed one day after sowing; evaluated after 13 days
Description: as §1

[7] = system: Alopecurus myosuroides (ALOMY); experiment: Post-emergence herbicidal activity, glasshouse pot test; conditions: Rate 1000 g/ha; sprayed after 8 days cultivation; evaluated after 13 days
Description: (§2) Seeds of a variety of test species were sown in standard soil in pots: Triticum aestivium (TRZAW), Avena fatua (AVEFA), Alopecurus myosuroides (ALOMY), Echinochloa crus-galli (ECHCG), Lolium perenne (LOLPE), and Setaria faberi (SETFA). After 8 days cultivation (post-emergence) under controlled conditions in a glasshouse (at 24/16° C., day/night; 14 hours light; 65% humidity), the plants were sprayed with an aqueous spray solution derived from the formulation of the technical active ingredient in acetone/water (50:50) solution containing 0.5% Tween 20 (polyoxyethelyene sorbitan monolaurate, CAS RN 9005-64-5). The test plants were then grown in a glasshouse under controlled conditions (at 24/16° C., day/night; 14 hours light; 65% humidity) and watered twice daily. After 13 days, the test was evaluated (5=total damage to plant; 0=no damage to plant).

[8] = system: Avena fatua (AVEFA); experiment: as above; conditions: Rate 1000 g/ha; sprayed after 8 days cultivation; evaluated after 13 days
Description: as §2

[9] = system: Echinochloa crus-galli (ECHCG); experiment: as above; conditions: Rate 1000 g/ha; sprayed after 8 days cultivation; evaluated after 13 days
Description: as §2

[10] = system: Lolium perenne (LOLPE); experiment: as above; conditions: Rate 1000 g/ha; sprayed after 8 days cultivation; evaluated after 13 days
Description: as §2

[11] = system: Setaria faberi (SETFA); experiment: as above; conditions: Rate 1000 g/ha; sprayed after 8 days cultivation; evaluated after 13 days
Description: as §2

[12] = system: Triticum aestivium (TRZAW); experiment: as above; conditions: Rate 1000 g/ha; sprayed after 8 days cultivation; evaluated after 13 days
Description: as §2

| SMILES | Control of weed species after pre-emergence application, ALOMY (damage score 0-5) [1] | Control of weed species after pre-emergence application, AVEFA (damage score 0-5) [2] | Control of weed species after pre-emergence application, ECHCG (damage score 0-5) [3] | Control of weed species after pre-emergence application, LOLPE (damage score 0-5) [4] | Control of weed species after pre-emergence application, SETFA (damage score 0-5) [5] | Control of weed species after pre-emergence application, TRAZW (damage score 0-5) [6] | Control of weed species after post-emergence application, ALOMY (damage score 0-5) [7] | Control of weed species after post-emergence application, AVEFA (damage score 0-5) [8] | Control of weed species after post-emergence application, ECHCG (damage score 0-5) [9] | Control of weed species after post-emergence application, LOLPE (damage score 0-5) [10] | Control of weed species after post-emergence application, SETFA (damage score 0-5) [11] | Control of weed species after post-emergence application, TRAZW (damage score 0-5) [12] |
| --- | --- | --- | --- | --- | --- | --- | --- | --- | --- | --- | --- | --- |
| CC(C)(C)OC(=O)N(C(=O)OC(C)(C)C)c1ncc(-c2cncc(F)c2)nc1C1=CCCCC1 [Compound H15] | 0 | 0 | 0 | 0 | 0 | 0 | 0 | 1 | 0 | 0 | 2 | 0 |
| CC(C)(C)OC(=O)N(C(=O)OC(C)(C)C)c1ncc(-c2cncnc2)nc1C(F)F [Compound H31] | 2 | 1 | 2 | 0 | 2 | 0 | 1 | 3 | 5 | 2 | 5 | 1 |
| CC(C)(C)OC(=O)N(C(=O)OC(C)(C)C)c1ncc(-c2cncc(F)c2)nc1OCc1ccccc1 [Compound H8] | 0 | 0 | 1 | 1 | 2 | 0 | 0 | 1 | 1 | 0 | 1 | 0 |
| CC(C)(C)OC(=O)N(C(=O)OC(C)(C)C)c1ncc(-c2cncc(F)c2)nc1C1CC1 [Compound H12] | 0 | 0 | 1 | 0 | 4 | 0 | 0 | 2 | 3 | 2 | 5 | 0 |
| COc1nc(-c2cncc(F)c2)cnc1NC(=O)OC(C)(C)C [Compound H7] | 0 | 1 | 3 | 0 | 5 | 0 | 0 | 3 | 5 | 2 | 5 | 1 |
| Cc1nc(-c2cncc(F)c2)cnc1N(C(=O)OC(C)(C)C)C(=O)OC(C)(C)C [Compound H2, 2-bis(tert-butoxycarbonyl)amino-3-methyl-5-(5-fluoropyrid-3-yl)pyrazine] | 0 | 2 | 4 | 2 | 5 | 0 | 0 | 3 | 5 | 2 | 5 | 0 |
| COc1nc(-c2cncc(F)c2)cnc1N(C(=O)OC(C)(C)C)C(=O)OC(C)(C)C [Compound H6] | 0 | 1 | 3 | 0 | 4 | 1 | 0 | 2 | 3 | 1 | 4 | 1 |
| CC(C)c1nc(-c2cncc(F)c2)cnc1N(C(=O)OC(C)(C)C)C(=O)OC(C)(C)C [Compound H13] | 0 | 0 | 1 | 0 | 4 | 0 | 0 | 1 | 2 | 1 | 5 | 1 |
